Laboratory results as given in patent US20110262352A1, “ARYL PIPERAZINE AND THEIR USE AS ALPHA2C ANTAGONISTS” (priority 2008, published 2011).
Where two headings read alike, the source gives them in different places.

Columns and labels:
human alpha2C receptors = biological target: T1, human alpha2C receptors (Homo sapiens, UniProt P18825); test: Determination of alpha2C antagonistic activity in vitro (intracellular calcium, FLIPR Calcium 3); format: cell-based
T1 construct: host or cells: Chinese hamster ovary (CHO) cells, cotransfected with pCEP-Gα16
T1 sequence (P18825 1-462): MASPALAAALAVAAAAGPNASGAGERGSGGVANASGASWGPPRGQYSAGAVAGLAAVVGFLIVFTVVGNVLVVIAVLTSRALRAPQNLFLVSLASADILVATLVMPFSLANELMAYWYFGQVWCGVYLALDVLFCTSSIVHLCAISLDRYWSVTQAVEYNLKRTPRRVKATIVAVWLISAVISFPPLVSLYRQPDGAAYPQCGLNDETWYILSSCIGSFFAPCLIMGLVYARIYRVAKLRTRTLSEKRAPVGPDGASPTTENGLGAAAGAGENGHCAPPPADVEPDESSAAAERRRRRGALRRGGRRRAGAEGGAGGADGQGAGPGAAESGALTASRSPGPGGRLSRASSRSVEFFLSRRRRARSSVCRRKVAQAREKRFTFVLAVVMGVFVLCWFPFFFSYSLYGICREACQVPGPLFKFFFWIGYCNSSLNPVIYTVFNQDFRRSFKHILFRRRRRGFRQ
Method: (§1) Experiment 1: Determination of alpha2A and alpha2C Antagonistic Activity In Vitro
(§2) Chinese hamster ovary (CHO) cells stably transfected with human alpha2A or alpha2C receptors (University of Turku, Finland) were cotransfected with the expression vector pCEP-Gα16 (Molecular Devices, CA, USA) were used in this experiment. The cells were maintained at 37° C. in a 5% CO2/95% air atmosphere. The cells were cultured in HAM F-12 medium supplemented with 10% FCS, 25 mM HEPES, 100 IU/ml penicillin, 100 μg/ml streptomycin, 500 μg/ml geneticin and 240 μg/ml hygromycin B. The cells were subcultured twice weekly with 0.25% trypsin and 1 mM EDTA. The subculture ratio was 1:5-1:20. The growth medium was changed every 2 or 3 days. All cell culture reagents were from Gibco. The day before the experiment the cells were plated into black-walled, clear bottom 96-well plates at a density of 30,000-45,000 cells/well.
(§3) The growth medium was removed and the cells were incubated with the test compounds and the FLIPR Calcium 3 Assay reagent (Molecular Devices, CA, USA) for 1 h at 37° C. in dark. The test compounds (concentrations in cells 100 pM-10 μM) were dissolved in Probenecid-Ringer consisting of 150 mM NaCl, 3 mM KCl, 1.2 mM MgCl2, 1 mM CaCl2, 5 mM glucose, 20 mM HEPES and 2.5 mM probenecid (pH 7.4 adjusted with 1.0 M NaOH). The osmolarity was adjusted to 322 milliosmoles with Osmostat® OM-6020 osmometer (DIC Kyoto Daiichi Kagagu Co. Ltd, Japan). […] All experiments were performed at 37° C. The test compounds dissolved in Probenecid-Ringer were applied by FLEX station at 17 s time point. […] In order to determine antagonism, the cells were stimulated either with 100 nM adrenaline or 200 nM noradrenaline and the test compounds were added to the cells at least 5 min before the experiment. Typically, there were four replicates at each concentration and seven different dose levels. For example, if the number of plates from which results were obtained was three, 84 (4*7*3) wells were thus measured to construct dose-response relationship. The samples were excited at 485 nm and emission was detected at 525 nm with a 515 nm cut-off filter. Reading time was 60 s per well and the photomultiplier sensitivity value was set to 15. The minimum fluorescence value subtracted from the maximum value for each well was used in the calculations. SOFTmax PRO version 3.2 software was used for analyzing the results. Fitting of the antagonist dose-response results was performed with the free Hill equation and the IC50 values were fitted with Michaelis-Menten equation in Sigma Plot 8.0.

human alpha2A receptors = biological target: T2, human alpha2A receptors (Homo sapiens, UniProt P08913); test: Determination of alpha2A antagonistic activity in vitro (intracellular calcium, FLIPR Calcium 3); format: cell-based; settings: CHO cells stably transfected with human alpha2A receptor and Gα16; stimulated with 100 nM adrenaline or 200 nM noradrenaline; 37° C.
T2 construct: host or cells: Chinese hamster ovary (CHO) cells, cotransfected with pCEP-Gα16
T2 sequence (P08913 1-465): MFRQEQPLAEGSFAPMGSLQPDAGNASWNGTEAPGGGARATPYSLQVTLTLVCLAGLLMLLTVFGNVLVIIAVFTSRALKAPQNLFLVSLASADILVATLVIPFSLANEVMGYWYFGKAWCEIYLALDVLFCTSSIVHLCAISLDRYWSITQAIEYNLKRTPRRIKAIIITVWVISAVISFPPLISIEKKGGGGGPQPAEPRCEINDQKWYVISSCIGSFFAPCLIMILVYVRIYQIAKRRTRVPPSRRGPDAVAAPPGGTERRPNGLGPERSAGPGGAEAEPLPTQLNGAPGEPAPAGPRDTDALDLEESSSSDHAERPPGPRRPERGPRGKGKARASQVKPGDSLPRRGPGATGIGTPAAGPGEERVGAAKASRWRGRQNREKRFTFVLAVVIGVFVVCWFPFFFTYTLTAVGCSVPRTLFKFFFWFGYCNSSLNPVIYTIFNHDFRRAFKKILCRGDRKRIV
Method: as §1, §2, §3

[1] = CHO cells stably transfected with human alpha2C receptor and Gα16, stimulated with 100 nM adrenaline or 200 nM noradrenaline, 37° C., read-out: IC50/nM Alpha2C

Compound | IC50 (human alpha2C receptors; [1]) [nM] | IC50 (human alpha2A receptors) [nM] | IC50 (human alpha2C receptors) [nM]
COCc1ccccc1N1CCN(C[C@@H]2COc3ccccc3O2)CC1 [Example 18, (R)-1-((2,3-Dihydrobenzo[b][1,4]dioxin-2-yl)methyl)-4-(2-(methoxymethyl)phenyl)piperazine] | 134 | 41100 | –
Cc1ccccc1N1CCN(C[C@H]2COc3ccccc3O2)CC1 [Example 31, (S)-1-((2,3-Dihydrobenzo[b][1,4]dioxin-2-yl)methyl)-4-o-tolylpiperazine] | – | 16900 | 17.6

Second part, led by results:

IC50 (human alpha2C receptors; [1]) [nM] | IC50 (human alpha2A receptors) [nM] | Compound | IC50 (human alpha2C receptors) [nM]
8.2 | 2180 | COCc1ccccc1N1CCN(C[C@H]2COc3ccccc3O2)CC1 [Example 17, (S)-1-((2,3-Dihydrobenzo[b][1,4]dioxin-2-yl)methy)-4-(2-(methoxymethyl)phenyl)piperazine] | –
13.7 | 3900 | COC(=O)c1ccccc1N1CCCN(CC2COc3ccccc3O2)CC1 (stereo not drawn) [Example 36, Methyl 2-(4-((2,3-dihydrobenzo[b][1,4]dioxin-2-yl)methyl)-1,4-diazepan-1-yl)benzoate] | –
30.6 | 10700 | OCc1c(F)cccc1N1CCN(CC2COc3ccccc3O2)CC1 (stereo not drawn) [Example 23, (2-(4-((2,3-Dihydrobenzo[b][1,4]dioxin-2-yl)methyl)piperazin-1-yl)-6-fluorophenyl)methanol] | –
18 | 12700 | c1coc(-c2ccccc2N2CCN(C[C@H]3COc4ccccc4O3)CC2)c1 [Example 29, (S)-1-((2,3-Dihydrobenzo[b][1,4]dioxin-2-yl)methyl)-4-(2-(furan-2-yl)phenyl)piperazine] | –
